Test results taken from patent US10793509B2, “Compounds useful in the treatment of neoplastic diseases” (UNIVERSITÄT ZU KÖLN, priority 2013, dated 2020).
Where two headings read alike, the source gives them in different places.

Experiments:
[1] = tested on: Primary CLL cells; experiment: AnnexinV/PI assay on primary CLL cells; type: cell-based, human; conditions: for EC50: Homo sapiens, CLL cell, read-out: AnnexinV/PI assay EC50 Primary CLL; for selectivity for CLL cells compared to PBMCs: FIG. 3, sensitivity of CLL cells vs PBMCs
Description: (§1) PBMCs or CLL cells (5*10^6 cells/ml) were incubated for 24 h with different compounds at concentrations from 0.01 to 100 μM. Cell survival was normalized to DMSO control [vehicle]. See Example 1.
(§2) Primary CLL or peripheral blood mononuclear cells of healthy donors (5*10^6/ml) were incubated for 24 h with different compounds according to the invention and NO-ASA as a control. The compounds were added in different concentrations, in particular in concentrations from 0.01-100 μM. Cell survival was assessed by AnnexinV/PI assay (Kit commercially available, e.g. by Biotium Inc, USA; or Phoenix Flow Systems, US), the results were normalized to DMSO control [vehicle] and dose response curves were calculated using a non-linear regression model.

[2] = tested on: peripheral blood mononuclear cells (PBMCs) of healthy donors; experiment: AnnexinV/PI assay on PBMCs of healthy donors; type: cell-based; conditions: Homo sapiens, PBMC
Description: as §1, §2

[3] = tested on: ovarian adenocarcinoma cell line COLO704; experiment: Viability assay (ATP content, CellTiter-Glo), COLO704; type: cell-based; conditions: COLO 704, 24 h
Description: (§3) In the following experiment the possible therapeutic window for NO-ASA derivatives was investigated. […] The melanoma cell line MelJuso, the colon carcinoma cell line SW480, the small cell lung cancer cell line HCC44, the ovarian adenocarcinoma cell line COLO704 and the acute myeloid leukemia cell line SH2 were treated with concentrations of p-NO-ASA and B9, B12 and B13 in a range between 0.01 μM and 100 μM for 24 h, followed by addition of luminogenic CellTiter-Glo® reagent.
(§4) Table accompanying Example 5. Overview of the EC50 values of cell survival analyzed by ATP content and Annexin V/PI assay. n.t.; not tested

[4] = tested on: melanoma cell line MelJuso; experiment: Viability assay (ATP content, CellTiter-Glo), MelJuso; type: cell-based; conditions: Homo sapiens, MEL-JUSO, 24 h
Description: as §3, §4

[5] = tested on: JVM-3; experiment: CellTiter-Glo ATP assay, JVM-3 cell line; type: cell-based, human; conditions: 24 h, 0.01-1000 μM
Description: (§5) Several cell lines (n=5) were treated with different concentrations of p-NO-ASA, B9, B12 and B13 ranging between 0.01 μM and 1000 μM for 24 hours followed by addition of luminogenic CellTiter-Glo®-reagent. […] For each cell line the order of used compound in the bar chart is from left to right as following: p-NO-ASA, B9, B12, B13.
(§6) Treatment success in CLL may depend on cytogenetic and molecular parameters as for instance del13q or TP53 gene disruption. Therefore, the NO-ASA derivatives were examined on (chronic) B cell lymphoma cell lines with different geno- and phenotypes (JVM3, EHEB, U2932, MEC-1, GRANTA-519). The cells were treated with concentrations between 0.01 and 1000 μM for 24 h followed by the addition of luminogenic CellTiter-Glo® reagent.

[6] = tested on: U2932; experiment: CellTiter-Glo ATP assay, U2932 cell line; type: cell-based; conditions: 24 h, 0.01-1000 μM
Description: as §5, §6

[7] = tested on: small cell lung cancer cell line HCC44; experiment: Annexin V/PI assay, HCC44; type: cell-based; conditions: Homo sapiens, HCC44, 24 h
[8] = tested on: MEC-1; experiment: CellTiter-Glo ATP assay, MEC-1 cell line; type: cell-based; conditions: Homo sapiens, MEC1; 24 h, CellTiter-Glo
Description: as §5, §6

[9] = tested on: ovarian adenocarcinoma cell line COLO704; experiment: Annexin V/PI assay, COLO704; type: cell-based; conditions: COLO 704, 24 h
[10] = tested on: several cancer cell lines; experiment: Apoptosis (Annexin V/PI) assay, panel of cancer cell lines; type: cell-based; conditions: range over the cancer cell lines, 24 h; read-out: concentrations inducing apoptosis in different diseases (apoptosis array)
[11] = tested on: SW480, MelJuso, HCC44, SH2 and COLO704 cell lines; type: cell-based; conditions: 24 h, 0.01-100 μM
Description: as §3

[12] = tested on: GRANTA-519; experiment: CellTiter-Glo ATP assay, GRANTA-519 cell line; type: cell-based; conditions: Homo sapiens, Granta-519; 24 h, CellTiter-Glo
Description: as §5, §6

[13] = tested on: TP53-mutated CLL cells; experiment: FACS analysis of treated CLL cells with TP53 mutation; type: cell-based, human; conditions: 24 h, 0.01-100 μM, FIG. 6
Description: (§7) Isolated, primary CLL cells were treated for 24 h with the EC50 of the different compounds and the ATP-content was measured by flow cytometry. For each used compound the order of mean EC50 concentrations in the bar chart is from left to right as following: EC50 CLL cells TP53 unmut (unmutated=without mutation), EC50 CLL cells TP53 mut (mutated=with mutation).
(§8) Further, the derivatives B9, B12 and B13 were tested in comparison to para-NO-ASA on CLL cells which harbour a TP53 mutation. The patient subgroup with a TP53 disruption is characterized by a considerable dismal prognosis. CLL cells of patients with and without the TP53 mutation were treated with five different concentrations (0.01, 0.1, 1, 10, 100 μM) of para-NO-ASA, B9, B12 and B13 for 24 h.

[14] = tested on: melanoma cell line MelJuso; experiment: Annexin V/PI assay, MelJuso; type: cell-based; conditions: Homo sapiens, MEL-JUSO, 24 h
[15] = tested on: acute myeloid leukemia cell line SH2; experiment: Annexin V/PI assay, SH2; type: cell-based; conditions: 24 h
[16] = tested on: phosphorylated NFkappaBp65 protein; experiment: Western blot of NFkappaB phosphorylation status in CLL cells; type: cell-based, human; conditions: 3 h; for reduction of NFkappaB activity (phosphorylated NFkappaBp65): CLL cells, 0.1, 1, 10 μM; for concentration inducing the reduction of NFkappaB p65 protein: CLL cells
Description: CLL cells were treated with B1, B9, B12 and B13 (0.1 μM, 1 μM, 10 μM) for 3 h. Untreated and DMSO (1%) treated cells served as control. GAPDH=loading control.
The BCR signalling pathway plays an important pathogenic role in CLL and lymphomas leading often to a constitutive active NFkappaB (in this state NFkappaB is phosphorylated). Therefore the influence of the derivatives on the phosphorylation status of NFkappaB was analyzed by Western Blot. CLL cells were treated with 0.1 μM, 1 μM or 10 μM of each derivate, respectively, for 3 h. CLL cells were treated with B1, B9, B12 and B13 (0.1 μM, 1 μM, 10 μM) for 3 h. Untreated and DMSO (1%) treated cells served as control. GAPDH=loading control.

[17] = tested on: small cell lung cancer cell line HCC44; experiment: Viability assay (ATP content, CellTiter-Glo), HCC44; type: cell-based
Description: as §3, §4

[18] = tested on: CLL cells without a TP53 mutation; experiment: FACS analysis of treated CLL cells without TP53 mutation; type: cell-based, human; conditions: 24 h, 0.01-100 μM, FIG. 6
Description: as §7, §8

[19] = tested on: colon carcinoma cell line SW480; experiment: cells; type: cell-based; conditions: Homo sapiens, SW480, 24 h, read-out: Viability assay EC50, SW480
Description: The cell lines (n=5) were treated with different concentrations of p-NO-ASA, B9, B12 and B13 ranging between 0.01 μM and 100 μM for 24 hours followed by addition of luminogenic CellTiter-Glo®-reagent (see Example 5).
as §3, §4

[20] = tested on: EHEB; experiment: CellTiter-Glo ATP assay, EHEB cell line; type: cell-based; conditions: 24 h, 0.01-1000 μM
Description: as §5, §6

[21] = tested on: acute myeloid leukemia cell line SH2; experiment: Viability assay (ATP content, CellTiter-Glo), SH2; type: cell-based; conditions: 24 h
Description: as §3, §4

[22] = 24 h incubation, 0.01-100 μM, 5*10^6 cells/ml, normalized to DMSO control
[23] = 24 h incubation, 0.01-100 μM, 5*10^6 cells/ml, normalized to DMSO control, read-out: AnnexinV/PI assay EC50 PBMCs
[24] = 24 h incubation, value extrapolated beyond tested 0.01-100 μM, read-out: AnnexinV/PI assay EC50 PBMCs (* = extrapolated)

CC(=O)Oc1ccc(C)cc1C(=O)Oc1ccc(CO[N+](=O)[O-])cc1 [B2, 4-((nitrooxy)methyl)phenyl 2-actetoxy-5-methylbenzoate]
EC50 [1, 22]: 4.75 µM
EC50 [2, 23]: 48.5 µM

CC(=O)Oc1cc(C)ccc1C(=O)Oc1ccc(CO[N+](=O)[O-])cc1 [B3, 4-((nitrooxy)methyl)phenyl 2-actetoxy-4-methylbenzoate]
EC50 [1, 22]: 4 µM
EC50 [2, 23]: 55.1 µM

O=C(Oc1ccc(CO)cc1)c1cc(C(F)(F)F)ccc1Cl [B5, 4-(hydroxymethyl)phenyl 2-chloro-5-(trifluoromethyl)benzoate]
EC50 [1, 22]: 37.2 µM
EC50 [2, 24]: 108 µM

O=C(Oc1ccc(CO[N+](=O)[O-])cc1)c1cc(C(F)(F)F)ccc1Cl [B6, 4-((nitrooxy)methyl)phenyl 2-chloro-5-(trifluoromethyl)benzoate]
EC50 [1, 22]: 4.42 µM
EC50 [2, 23]: 73.9 µM

CC(C)(C)[Si](C)(C)OCc1ccc(OC(=O)c2ccccc2)cc1 [B7, 4-(((tert-butyldimethylsilyl)oxy)methyl)phenyl benzoate]
EC50 [1, 22]: 52.8 µM
EC50 [2, 24]: 203 µM

O=C(Oc1ccc(CO)cc1)c1ccccc1 [B8, 4-(hydroxymethyl)phenyl benzoate]
EC50 [1, 22]: 57.3 µM

O=COCc1ccc(OC(=O)c2ccccc2)cc1 [B10, 4-((formyloxy)methyl)phenyl benzoate]
EC50 [1, 22]: 79.4 µM
EC50 [2, 24]: 859 µM

COc1cc(CO[N+](=O)[O-])ccc1OC(=O)c1ccccc1 [B11, 2-methoxy-4-((nitrooxy)methyl)phenyl benzoate]
EC50 ([1]; 24 h): 14.7 µM
EC50 ([2]; 24 h, read-out: AnnexinV/PI assay EC50 PBMCs): 24.4 µM

O=C(Oc1ccc(CCl)cc1)c1ccccc1 [B12, 4-(chloromethyl)phenyl benzoate]
EC50 [3]: 2.77 µM
EC50 [4]: 0.54 µM
ATP content in JVM-3 [5]: reduced ATP content
selectivity for CLL cells compared to PBMCs ([1]; 24 h): selective for CLL cells
EC50 [1, 22]: 1.33 µM
ATP content in U2932 [6]: reduced ATP content
EC50 [7]: 7.35 µM
EC50 [8]: 3.24 µM
EC50 [9]: 1.8 µM
EC50 [10]: 1 to 5 µM
ATP content in SW480, MelJuso, HCC44, SH2 and COLO704 cell lines [11]: reduced ATP content
EC50 [12]: 0.68 µM
effect on TP53-mutated CLL cells in comparison to para-NO-ASA (B1) [13]: more effective
EC50 [14]: 4.79 µM
EC50 [15]: 1.68 µM
reduction of NFkappaB activity (phosphorylated NFkappaBp65) [16]: concentration dependent reduction
concentration inducing the reduction of NFkappaB p65 protein [16]: 10 µM
EC50 ([17]; 24 h): 1.03 µM
EC50 ([17]; Homo sapiens, HCC44, 24 h): 1.05 µM
effect on CLL cells without a TP53 mutation [18]: great effect
EC50 [19]: 130 µM
EC50 [2, 23]: 35 µM
ATP content in EHEB [20]: reduced ATP content
EC50 [21]: 0.01 µM

O=C(Oc1ccc(CO[N+](=O)[O-])cc1)c1cccc2ccccc12 [B13, 4-((nitrooxy)methyl)phenyl 1-naphthoate]
EC50 [3]: 7.86 µM
EC50 [4]: 4.79 µM
ATP content in JVM-3 [5]: reduced ATP content
selectivity for CLL cells compared to PBMCs ([1]; 24 h): selective for CLL cells
EC50 [1, 22]: 1.04 µM
ATP content in U2932 [6]: reduced ATP content
EC50 [7]: 37.9 µM
EC50 [8]: 24.1 µM
EC50 [9]: 53.7 µM
EC50 [10]: 7 to 57 µM
ATP content in SW480, MelJuso, HCC44, SH2 and COLO704 cell lines [11]: reduced ATP content
EC50 [12]: 19.7 µM
effect on TP53-mutated CLL cells in comparison to para-NO-ASA (B1) [13]: more effective
EC50 [14]: 57.5 µM
EC50 [15]: 6.95 µM
reduction of NFkappaB activity (phosphorylated NFkappaBp65) [16]: concentration dependent reduction
concentration inducing the reduction of NFkappaB p65 protein [16]: 10 µM
EC50 ([17]; Homo sapiens, HCC44, 24 h): 1.68 µM
EC50 [19]: 190 µM
EC50 [2, 23]: 52.7 µM
ATP content in EHEB [20]: reduced ATP content
EC50 [21]: 0.64 µM

O=C(Oc1ccc(CO[N+](=O)[O-])cc1)C1CCCCC1 [B14, 4-((nitrooxy)methyl)phenyl cyclohexane carboxylate]
EC50 [1, 22]: 3.31 µM
EC50 [2, 23]: 20.2 µM

Nc1cccc2c(S(=O)(=O)Oc3ccc(CO[N+](=O)[O-])cc3)cccc12 [B16, 4-((nitrooxy)methyl)phenyl 5-aminonaphthalene-1-sulfonate]
EC50 [1, 22]: 82.4 µM
EC50 [2, 24]: 370 µM

COc1ccccc1C(=O)Oc1ccc(CO[N+](=O)[O-])cc1 [B18, 4-((nitrooxy)methyl)phenyl 2-methoxybenzoate]
EC50 [1, 22]: 26 µM

C#Cc1cc(CO[N+](=O)[O-])ccc1OC(=O)c1ccccc1 [B20, 2-ethynyl-4-((nitrooxy)methyl)phenyl benzoate]
EC50 [1, 22]: 21.8 µM
EC50 [2, 24]: 308 µM
